Measurements published in US20260226048A1, “MULTI-CYCLIC IRAK AND FLT3 INHIBITING COMPOUNDS AND USES THEREOF” (CHILDREN'S HOSPITAL MEDICAL CENTER, priority 2023, published 2026).
Like-named read-outs stand apart in the source and are kept apart here.

Key:
[1] = target: T1, FLT3 (Homo sapiens, UniProt P36888); experiment: RBC HotSpot Kinase Assay, FLT3; assay type: biochemical; design: purchased Reaction Biology (RBC HotSpot); settings: isolated kinase enzyme, 33P-ATP, P81 filter-binding
T1 sequence (P36888 27-993): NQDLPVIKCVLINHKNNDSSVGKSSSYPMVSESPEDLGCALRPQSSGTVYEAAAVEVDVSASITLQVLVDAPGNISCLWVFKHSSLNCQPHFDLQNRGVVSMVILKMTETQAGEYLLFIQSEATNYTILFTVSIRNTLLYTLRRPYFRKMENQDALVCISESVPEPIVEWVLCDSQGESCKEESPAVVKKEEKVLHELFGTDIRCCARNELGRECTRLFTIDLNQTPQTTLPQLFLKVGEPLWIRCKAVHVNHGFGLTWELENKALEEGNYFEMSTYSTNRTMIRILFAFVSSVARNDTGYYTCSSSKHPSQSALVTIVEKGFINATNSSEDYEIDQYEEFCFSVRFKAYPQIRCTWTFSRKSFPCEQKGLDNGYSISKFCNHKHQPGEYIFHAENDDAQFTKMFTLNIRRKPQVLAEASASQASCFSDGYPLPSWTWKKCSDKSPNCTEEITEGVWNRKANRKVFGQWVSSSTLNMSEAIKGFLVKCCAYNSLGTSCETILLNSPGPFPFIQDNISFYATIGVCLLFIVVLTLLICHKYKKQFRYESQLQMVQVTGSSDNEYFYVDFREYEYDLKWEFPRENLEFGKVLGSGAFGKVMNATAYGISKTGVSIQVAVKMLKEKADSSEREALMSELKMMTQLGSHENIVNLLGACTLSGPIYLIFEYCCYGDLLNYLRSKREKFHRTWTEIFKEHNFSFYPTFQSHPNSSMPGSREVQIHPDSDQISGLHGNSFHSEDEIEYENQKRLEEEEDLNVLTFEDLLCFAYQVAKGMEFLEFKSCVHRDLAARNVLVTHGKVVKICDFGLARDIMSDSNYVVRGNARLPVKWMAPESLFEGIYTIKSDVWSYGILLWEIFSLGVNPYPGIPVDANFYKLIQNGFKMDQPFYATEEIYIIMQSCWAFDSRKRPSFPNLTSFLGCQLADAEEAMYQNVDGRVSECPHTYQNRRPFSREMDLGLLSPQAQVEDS
In short: (§1)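 Reactions ran in 20 mM Hepes (pH 7.5) containing 10 mM MgCl2, 1 mM EGTA, 0.1 mM Na3VO4, 2 mM DTT, 0.02 mg/ml BSA, 0.01% Brij35 and 1% DMSO, plus required cofactors. Functional activity readout on the expressible enzyme form, sometimes C-terminally truncated or lacking receptor regulatory regions.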

[2] = tested on: NF-κB-inducible SEAP reporter in THP-1-Blue NF-κB cells; experiment: NF-kB SEAP reporter assay in THP-1-Blue NF-κB cells; assay type: cell-based; settings: 24 hours
Procedure: THP-1-Blue NF-κB cells (InvivoGen) carrying a stable integrated NF-κB-inducible secreted embryonic alkaline phosphatase (SEAP) reporter construct were plated at a concentration of 1×10^5 cells per well. The cells were stimulated with Pam3CSK4 (1 ng/mL) or hIL1B (1 ng/mL). After 10-20 minutes, the cells were then treated with vehicle (DMSO) or serial dilutions of the test compounds (10 doses tested for each test compound, with a 1:10 dilution series starting at 1 μM or 3 μM) with a final volume of 200 μL for 24 hours at 37° C. After 24 hours, the cells were centrifuged and 20 μL supernatant was incubated with 180 μL QUANTI-Blue reagent at 37° C. for 30-60 minutes. The levels of NF-κB-induced was measured in a microplate reader at 620 nm.

[3] = target: T2, IRAK4 (Homo sapiens, UniProt Q9NWZ3); experiment: RBC HotSpot Kinase Assay, IRAK4; assay type: biochemical; design: purchased Reaction Biology (RBC HotSpot); settings: isolated kinase enzyme, 33P-ATP, P81 filter-binding
T2 sequence (Q9NWZ3 1-460): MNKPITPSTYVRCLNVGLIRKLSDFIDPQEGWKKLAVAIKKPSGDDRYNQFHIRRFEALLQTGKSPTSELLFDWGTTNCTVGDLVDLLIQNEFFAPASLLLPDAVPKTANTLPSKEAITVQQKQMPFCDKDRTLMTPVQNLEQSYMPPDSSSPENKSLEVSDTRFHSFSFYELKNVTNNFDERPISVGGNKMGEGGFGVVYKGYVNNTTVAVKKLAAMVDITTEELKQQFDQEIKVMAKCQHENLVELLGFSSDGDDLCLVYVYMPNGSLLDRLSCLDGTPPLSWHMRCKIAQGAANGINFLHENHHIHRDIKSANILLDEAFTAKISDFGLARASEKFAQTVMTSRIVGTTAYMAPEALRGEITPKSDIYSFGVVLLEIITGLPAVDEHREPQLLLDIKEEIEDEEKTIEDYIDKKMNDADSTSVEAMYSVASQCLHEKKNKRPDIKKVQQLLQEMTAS
In short: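 Radiometric filter-binding activity assay with isolated recombinant kinase (construct may be truncated or catalytic domain only) in 20 mM Hepes pH 7.5, 10 mM MgCl2, 1 mM EGTA, 2 mM DTT, 1% DMSO. Compound preincubated 20 min with kinase/substrate; reaction started with 33P-ATP, run 2 h at room temperature.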

[4] = tested on: MOLM14 D835Y cells; experiment: MOLM14 D835Y cell viability assay (Cell Titer Glo); assay type: cell-based; settings: Homo sapiens, MOLM-14, 48 h, read-out: MOLM14 D835Y IC50
In short: (§2)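 Luminescent ATP read-out (CellTiter-Glo, 15 min room temperature) taken 48 h after compound addition. Cells were MOLM14 carrying FLT3 D835Y or F691L mutations, plated at 1000 cells per well.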

[5] = tested on: MOLM14 F691L cells; experiment: MOLM14 F691L cell viability assay (Cell Titer Glo); assay type: cell-based; settings: Homo sapiens, read-out: MOLM14 F691L IC50
In short: as §2

[6] = target: T3, IRAK1 (Homo sapiens, UniProt P51617); experiment: RBC HotSpot Kinase Assay, IRAK1; assay type: biochemical; settings: isolated kinase enzyme, 33P-ATP, P81 filter-binding
T3 construct: purchased Reaction Biology (RBC HotSpot)
In short: as §1

[7] = THP-1-Blue NF-κB cells stimulated with Pam3CSK4 (1 ng/mL), read-out: NF-κB Pam3SCK4 IC50
[8] = THP-1-Blue NF-κB cells stimulated with hIL1B (1 ng/mL), read-out: NF-κB IL1B IC50
[9] = cell viability, Cell Titer Glo, 48 hours
[10] = MOLM-14, cell viability, Cell Titer Glo, 48 hours

T3 sequence (P51617 whole entry): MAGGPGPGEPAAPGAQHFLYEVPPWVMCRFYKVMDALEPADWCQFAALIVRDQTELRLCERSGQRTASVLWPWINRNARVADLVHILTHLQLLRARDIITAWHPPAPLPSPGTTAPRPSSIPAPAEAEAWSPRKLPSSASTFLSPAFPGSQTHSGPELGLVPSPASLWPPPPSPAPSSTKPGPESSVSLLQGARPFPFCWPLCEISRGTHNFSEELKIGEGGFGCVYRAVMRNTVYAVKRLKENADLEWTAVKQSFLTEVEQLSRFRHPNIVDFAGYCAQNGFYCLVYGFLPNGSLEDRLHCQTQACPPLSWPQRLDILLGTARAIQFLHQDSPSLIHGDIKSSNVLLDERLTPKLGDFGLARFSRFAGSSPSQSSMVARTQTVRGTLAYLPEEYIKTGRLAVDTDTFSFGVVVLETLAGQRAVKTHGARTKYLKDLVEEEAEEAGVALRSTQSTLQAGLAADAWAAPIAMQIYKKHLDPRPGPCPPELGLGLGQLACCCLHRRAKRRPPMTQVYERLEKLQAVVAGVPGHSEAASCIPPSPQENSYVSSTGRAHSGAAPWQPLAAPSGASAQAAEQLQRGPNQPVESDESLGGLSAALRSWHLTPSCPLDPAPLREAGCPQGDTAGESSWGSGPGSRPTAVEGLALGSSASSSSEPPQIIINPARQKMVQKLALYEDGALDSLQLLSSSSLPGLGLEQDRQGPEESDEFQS

Row | SMILES | IC50 [1] [nM] | IC50 [2, 7] [nM] | IC50 [2, 8] [nM] | IC50 [3] [nM] | IC50 [4, 9] [nM] | IC50 [5, 10] [nM] | IC50 [6] [nM] | IC50 [4] [nM] | IC50 ([5]; MOLM-14, 48 h) [nM]
1 | COc1cc2ncc(-c3nc(N[C@H]4CNCC[C@@H]4F)ncc3F)n2nc1[C@H]1C[C@@H](O)C1 [Compound 126a, Cis-3-(3-(5-fluoro-2-(((3S,4S)-4-fluoropiperidin-3-yl)amino)pyrimidin-4-yl)-7-methoxyimidazo[1,2-b]pyridazin-6-yl)cyclobutan-1-ol] | < 0.5 | 192 | 183 | < 0.5 | 4 | 80 | 37 | – | –
2 | F[C@H]1CCNC[C@@H]1Nc1cncc(-c2cnc3cc(OC4CC4)c(C4CC4)nn23)n1 [Compound 13a, 6-(7-cyclopropoxy-6-cyclopropylimidazo[1,2-b]pyridazin-3-yl)-N-((3S,4S)-4-fluoropiperidin-3-yl)pyrazin-2-amine] | < 0.5 | 512 | 334 | 5 | 115 | – | 55 | – | –
3 | COc1cc2ncc(-c3nc(N[C@@H]4CCCNC4)ncc3F)n2nc1C1CC(F)(F)C1 [Compound 51a, (R)-4-(6-(3,3-difluorocyclobutyl)-7-methoxyimidazo[1,2-b]pyridazin-3-yl)-5-fluoro-N-(piperidin-3-yl)pyrimidin-2-amine] | < 0.5 | 136 | 135 | 3 | 9 | – | 3 | – | –
4 | COc1cc2ncc(-c3ccnc(N[C@H]4CNCC[C@@H]4F)n3)n2nc1C1CC(F)(F)C1 [Compound 19a, 4-(6-(3,3-difluorocyclobutyl)-7-methoxyimidazo[1,2-b]pyridazin-3-yl)-N-((3S,4S)-4-fluoropiperidin-3-yl)pyrimidin-2-amine] | < 0.5 | 701 | 567 | 13 | 51 | – | 70 | – | –
5 | C[C@@](O)(c1ccc2ncc(-c3ccnc(N[C@H]4CNCC[C@@H]4F)n3)n2c1)C(F)(F)F (single isomer, unassigned) [Compound 27a] | < 0.5 | 55 | 52 | 0.7 | 18 | – | 4 | – | –
6 | CC(O)(c1ccc2ncc(-c3nc(N[C@@H]4CCCNC4)ncc3F)n2c1)C(F)(F)F (single isomer, unassigned) [Compound 37a] | < 0.5 | 70 | 58 | 2 | 32 | – | 2 | – | –
7 | COc1cc2ncc(-c3nc(N[C@H]4CNC[C@@H]4F)ncc3F)n2nc1N1CCCC1=O [Compound 107a, 1-(3-(5-fluoro-2-(((3S,4S)-4-fluoropyrrolidin-3-yl)amino)pyrimidin-4-yl)-7-methoxyimidazo[1,2-b]pyridazin-6-yl)pyrrolidin-2-one] | 0.6 | – | – | 20 | 80 | 1130 | 102 | – | –
8 | COc1cc2ncc(-c3nc(N[C@@H]4CCCNC4)ncc3Cl)n2nc1C1CC1 [Compound 102a, (R)-5-chloro-4-(6-cyclopropyl-7-methoxyimidazo[1,2-b]pyridazin-3-yl)-N-(piperidin-3-yl)pyrimidin-2-amine] | < 0.5 | – | – | 2 | 23 | 71 | 81 | – | –
9 | COc1cc2ncc(-c3nc(N[C@H]4CNCC[C@@H]4F)ncc3F)n2nc1C1CCCC1 [Compound 63a, 4-(6-cyclopentyl-7-methoxyimidazo[1,2-b]pyridazin-3-yl)-5-fluoro-N-((3S,4S)-4-fluoropiperidin-3-yl)pyrimidin-2-amine] | < 0.5 | – | – | < 0.5 | 2 | 13 | < 0.5 | – | –
10 | COc1cc2ncc(-c3nc(N[C@H]4CNC[C@@H]4F)ncc3Cl)n2nc1C1CC1 [Compound 101a, 5-chloro-4-(6-cyclopropyl-7-methoxyimidazo[1,2-b]pyridazin-3-yl)-N-((3S,4S)-4-fluoropyrrolidin-3-yl)pyrimidin-2-amine] | 0.8 | – | – | 1 | 113 | 711 | 24 | – | –
11 | COc1cc2ncc(-c3ccnc(N[C@H]4CNCC[C@@H]4F)n3)n2nc1C1COC1 [Compound 97a, N-((3S,4S)-4-fluoropiperidin-3-yl)-4-(7-methoxy-6-(oxetan-3-yl)imidazo[1,2-b]pyridazin-3-yl)pyrimidin-2-amine] | 0.7 | – | – | 4 | 32 | 318 | 361 | – | –
12 | COc1cc2ncc(-c3nc(N[C@H]4CNCC[C@@H]4F)ncc3F)n2nc1N1CCCC1=O [Compound 108a, 1-(3-(5-fluoro-2-(((3S,4S)-4-fluoropiperidin-3-yl)amino)pyrimidin-4-yl)-7-methoxyimidazo[1,2-b]pyridazin-6-yl)pyrrolidin-2-one] | 2 | – | – | 57 | 80 | 798 | 241 | – | –
13 | COc1cc2ncc(-c3nc(N[C@H]4CNCC[C@@H]4F)ncc3F)n2nc1C1CCCCC1 [Compound 66a, 4-(6-cyclohexyl-7-methoxyimidazo[1,2-b]pyridazin-3-yl)-5-fluoro-N-((3S,4S)-4-fluoropiperidin-3-yl)pyrimidin-2-amine] | < 0.5 | – | – | 0.6 | – | – | < 0.5 | 4 | 28
14 | COc1cc2ncc(-c3ccnc(N[C@@H]4CCCNC4)n3)n2nc1C1CCCCC1 [Compound 87a, (R)-4-(6-cyclohexyl-7-methoxyimidazo[1,2-b]pyridazin-3-yl)-N-(piperidin-3-yl)pyrimidin-2-amine] | < 0.5 | – | – | 3 | 28 | 252 | 26 | – | –
